“Also recorded” adds a separate entry of the source. Like-named read-outs stand apart in the source and are kept apart here.
How the values were obtained:
estrogen receptor = target: T1, estrogen receptor (Rattus norvegicus, UniProt P06211); test: Receptor binding assay: displacement of [3H]-estradiol from rat uterine cytosol; design: species or system rat (Sprague-Dawley); settings: for RBA (relative binding affinity): relative to estradiol = 100%, average of duplicate determinations minus nonspecific binding
T1 construct: ovariectomized rat uterine cytosolic estrogen receptor preparation; from tissue; host or cells: uterine cytosol of ovariectomized Sprague-Dawley rats (immature rats from Sasco are named as uterus source, mature ovariectomized rats)
T1 sequence (P06211 1-600): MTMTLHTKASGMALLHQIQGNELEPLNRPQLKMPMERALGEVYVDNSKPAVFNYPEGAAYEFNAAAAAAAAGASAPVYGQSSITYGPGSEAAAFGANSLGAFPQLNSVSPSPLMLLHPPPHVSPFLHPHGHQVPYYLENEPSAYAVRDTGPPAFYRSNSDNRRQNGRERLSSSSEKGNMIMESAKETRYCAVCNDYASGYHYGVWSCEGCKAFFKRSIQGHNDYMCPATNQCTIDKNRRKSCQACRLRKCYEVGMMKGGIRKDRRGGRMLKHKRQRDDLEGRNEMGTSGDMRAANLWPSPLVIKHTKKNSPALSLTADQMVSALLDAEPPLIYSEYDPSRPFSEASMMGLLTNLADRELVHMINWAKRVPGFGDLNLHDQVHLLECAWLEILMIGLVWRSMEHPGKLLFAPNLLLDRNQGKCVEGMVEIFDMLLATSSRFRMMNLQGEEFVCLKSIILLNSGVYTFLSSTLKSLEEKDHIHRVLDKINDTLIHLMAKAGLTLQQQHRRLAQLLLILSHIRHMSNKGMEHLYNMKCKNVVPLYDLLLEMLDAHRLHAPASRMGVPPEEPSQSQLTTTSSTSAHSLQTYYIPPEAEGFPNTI
Text: (§1) The biological evaluation of the test compounds consisted of the in vitro rat cytosolic estradiol receptor binding assay, the in vivo immature mouse uterotrophic (estrogenic) and antiuterotrophic (antiestrogenic) assays, and the in vitro suppression of the proliferation of the ER positive MCF-7 human breast cancer cell line. Estradiol (pure agonist), TAM (agonist in mice and antagonist in MCF-7), MER 25 (pure antagonist) and Analog II (antagonist in mice) were used in the assay as standards.
Vital-free immature female Swiss-Webster mice were obtained at 17-19 days of age from Sasco weighing 8-10 g, and were used in the uterotrophic and antiuterotrophic assays. Immature female Sprague-Dawley rats, obtained at 17-19 days of age from Sasco, weighing 28-33 g, were used as sources of uteri for the estradiol receptor binding assay. Animals were housed in wire topped polycarbonate cages at six animals per cage, with the environment controlled at 25° C. and a 12 h light/dark cycle. The animals received a diet of Wayne Lab Blox rodent chow and tap water ad libitum.
The RBAs of the test compounds were determined by the displacement of [^3 H]-estradiol in vitro, as described previously (DAY, B. W., […], R. A., JAIN, P., PENTO, J. T., MOUSISSIAN, G. K. AND MEYER, K. L. (1991), "Synthesis and biological evaluation of a series of 1,1-dichloro-2,2,3-triarylcyclopropanes as pure antiestrogens", Journal of Medicinal Chemistry, 34, 842; KORENMAN, S. G. (1969), "Comparative binding affinity of estrogens and its relation to estrogenic potency", Steroid, 13, 163). Mature female Sprague-Dawley rats were ovariectomized at least two weeks prior to the receptor binding experiment. Each test compound was assayed at three concentrations in duplicate over a range of 10^-3 -10^-5 M and 10^-6 -10^-8 M for the estradiol standard. The non-specific binding was determined by a parallel incubation of each compound with the addition of diethylstilbestrol to give a final concentration of 2×10^-5 M DES which was sufficient to saturate all the estrogen receptors present in the cytosolic fraction. Specific displacement for each compound was determined by subtraction of nonspecific displacement from total displacement. The [^3 H]-estradioldisplacement curve for each test compound was determined by linear repression analysis and plotted graphically. The relative binding affinity for each compound was calculated (BLISS, C.I. (1967), "The statistics in biology", McGraw Hill, Inc: New York).
^a Determined by competitive radiometric binding assay with rat
uterine cytosol as a source of receptor, [^3 H]estradiol as tracer,
and dextrancoated charcoal as absorbant for free ligand.
^c Binding affinities are expressed relative to that of estradiol =
100% (RBA = relative binding affinity) and are the average of duplicate
determinations minus nonspecific binding.
The relative binding affinities (RBAs), as determined by the competitive radiometric binding assay and measured by [^3 H]-estradiol displacement from the ovariectomized rat uterine cytosolic estrogen receptor preparation, after subtracting non-specific receptor binding, were calculated for all of the synthesized target compounds, TAM, MER 25, Analog II, and estradiol. The displacement curves were plotted as percent receptor-bound [^3 H]-estrodiol versus concentration of test compounds (not shown) and the receptor binding affinity of each compound is presented in Table II.

[1] = test system: MCF-7 human breast cancer cells; test: In vitro MCF-7 human breast cancer cell growth inhibition assay; format: cell-based; settings: for inhibition at 1 µM: Homo sapiens
Text: as §1
MCF-7 (estrogen-receptor positive) human breast cancer cells (obtained from the Michigan Cancer Foundation, Detroit, Mich.) were grown at 37° C. in 75 cm^2 tissue culture (T-75) flasks, as monolayer cultures in RPMI 1640 phenol red-free media supplemented with 2 mM L-glutamine, gentamicin (50 μg/mL), penicillin (100 units/mL), streptomycin (100 μg/mL ) and calf serum (5%). Cultures were grown in an incubator 37° C. in a humid 5% CO2 atmosphere, and fed on alternate days. Expotential growth was maintained by subculturing at eight day intervals when the cells per T-75 flask reached 10 to 12×10^6 cells. Cells were trypsinized, washed and plated in multiwell plates at a density of 5×10^4 cells/well in 3 mL of RPMI 1640 media. The cells were allowed to attach and were in logarithmic growth when the test compounds were added. The test compounds (10^-6 M) in the presence or absence of a 10-fold lower dose of estradiol were dissolved in a polyethylene glycol 400: ethanol (55:45) mixture and added in the culture media in duplicate. Control samples received vehicle alone at the same concentration used in the treatment groups. The final concentration of the vehicle mixture was 0.1% of the incubation media. Cell growth was measured on alternate days using the hemocytometric trypan blue exclusion method. Percent inhibition of MCF-7 cells was calculated as the ratio of the control mean cell count per well minus the treatment group mean cell count per well to the control mean cell count per well, multiplied by 100.
^b % MCF7 inhibition was calculated as follows: […]
Thirteen compounds, Analog II, TAM, and MER 25 were tested for their antiproliferative activity in the MCF-7 human breast cancer cell line (Table II). Compounds were tested at a concentration of 10^-6 M in the presence or absence of 10^-7 M estradiol to assess their ability to alter the growth of the calls (Table II). The 10^-6 M concentration was selected since it was reported that the inhibition of the MCF-7 cells by antiestrogens and TAM occurred either at that concentration or less, and were both selective and estrogen receptor specific. Concentrations of antiestrogens greater than 5×10^-6 M were reported to have nonspecific cytotoxic effects (BRIAND, P. AND […], A. E. (1984), "Effect of estrogen and antiestrogen on the human breast cancer cell line MCF-7 adapted to growth at low serum concentration", Cancer Research, 44, 1114).

| Structure (SMILES) | RBA (relative binding affinity) (estrogen receptor) [%] | effect on MCF-7 cell growth (in words) ([1]; 10^-6 M) | inhibition at 1 µM ([1]; MCF7, 10^-6 M, versus control mean cell count, read-out: MCF-7 Inhibition) [%] | RBA ranking (in words) (estrogen receptor; among the compounds tested) | reversal of growth inhibition by estradiol (in words) ([1]; 10^-7 M estradiol) | inhibition at 1 µM ([1]; MCF7, read-out: MCF-7 Inhibition) [%] | effect on estradiol-induced cell growth (in words) ([1]; with 10^-7 M estradiol) |
| --- | --- | --- | --- | --- | --- | --- | --- |
| CC(=O)Oc1ccc([C@H]2[C@@H](c3ccccc3)C2(Cl)Cl)cc1 (relative stereo) [Compound 10, 1,1-Dichloro-cis-2-(p-acetoxyphenyl)-3-phenylcyclopropane] | 0.07 | inhibited cell growth | 32 |  |  |  |  |
| Oc1ccc(C2(c3ccc(O)cc3)C(Cl)(Cl)C23CCCCC3)cc1 [Compound 30, 1,1-Dichloro-2,2-bis-(p-hydroxyphenyl)-spiro[2.5]octane] | 0.62 | active inhibitors of cell growth |  | comparable to tamoxifen; also recorded: the highest | reversed by 10^-7 M estradiol | 21.3 | enhanced estradiol-induced cell growth above the control |

Source: patent US5663207A, “Gem-dichlorocyclopropanes as antitumor agents” (priority 1995, dated 1997)
